Assays:
NESTIN expression in GB5 = test: NESTIN expression by immunofluorescence in GB5; assay type: cell-based, human; conditions: GB5, seven days
Method: (§1) FIG. 2: Compounds 9a-b and 18a-b effect on stemness marker expression, clonal expansion and mitosis in GB5 cells. (A) NESTIN expression was assessed by immunofluorescence in GB5 treated with increasing amount of Compounds 9a-b and 18a. The number of NESTIN positive cells was counted for each treatment and express as percentage of the control (100%). The results are the meaning of at least two separate experiments. […] (C) Clonal expansion analysis was performed with GB5 cells as described in the material and method section. Two and three weeks later, the number of spheroids is counted and reported as percentage of the initial number of cells in the well. The results are the meaning of a minimum of two separate experiments. (D) The number of mitosis in the culture was determined by the detection of the number of cells positive for histone H3 phosphorylated on ser-10 (H3-ser10). H3-ser10 expression was assessed by immunofluorescence in GB5 treated with increasing amount of Compounds 9a-b and 18a. The number of positive cells was counted for each treatment and express as percentage of the control (100%). The results are the meaning of at least two separate experiments.
(§2) III—Immunofluorescence assay: TG6 and GB5 were seeded at 2000 cells/well in 24 wells plate in NS34+ alone or containing 5, 7.5, 10, 12.5, 15, 20 and 25 uM of Compounds 9a-b and 18a-b. Cultures were incubated 4 days and the cells were fixed with 4% paraformaldehyde for 10 min at room temperature then washed with PBS. Cells were then incubated with ammonium chloride at 20 mM 5 min at room temperature and washed 5 times with PBS. Blocking and hybridization were realized in PBS containing 10% FCS and 0.1% Triton X100. Anti-Nestin and anti-H3Phospho serine 10 antibodies were incubated 2 hours at room temperature then washed with PBS. Fluorescence coupled secondary antibodies and Hoechst 33342 nuclei counterstaining reagent were hybridized one hour at room temperature. Cells were mounted with anti-fading agent then imaged, counted and quantified using fluorescent microscopy (TiE Nikon) and NiS software (Nikon).
Patient derived GSC (GB5) have been treated during seven days, with growing concentrations of compounds that have been capable of inducing changes of GSC morphology. To assess the consequence on stemness maintenance, we observed, by immunofluorescence, the expression of stemness and progenitor cells such as the NESTIN protein. […] The strongest effect has been obtained with Compounds 9a treatment (IC50=10 uM).

GB5 cells [1] = test: Mitosis: cells positive for histone H3 phosphorylated on ser-10, GB5; assay type: cell-based, human; conditions: GB5, H3-ser10 positive cells
Method: as §1, §2
It was further investigated the effects of selected compounds on GSC clonal expansion as well as their capacity of mitosis (FIGS. 2B and C). Compounds 9a-b and 18a treatment altered GSC clonal expansion and mitosis. The most efficient inhibition of clonal expansion was provided by Compound 9a treatment (IC50<10 uM) while both Compounds 9a-b were the most efficient for mitosis inhibition (IC50<10 uM) (FIGS. 2C and D).

human kidney (NHEK) = test: XTT toxicity assay on human kidney cells; assay type: cell-based
Method: FIG. 4: Determination of compound toxicity on GSC and normal human cells. (A) GB5 were incubated with growing concentration of Compounds 9a-b and 18a. (B) human normal neural stem cell (NNSC), human normal kidney cells (NHEK), human normal hepatocytes (HEPRG) and (C) human endothelial cells (HUVEC) were treated with growing concentration of Compound 9a. 7 days later, the cells were subjected to an XTT assays as described in the method section. The results are the meaning of at least two separate experiments. Cell death was confirmed by trypan blue staining (not shown).
HEK293 (human embryonic kidney cell) were grown in DMEM supplemented with glutamax and 10% foetal calf serum.
V—Toxicity tests: NNSC, GB5, TG6, HEK293, and HepaRG, HUVEC were seeded at 2000 cells/well in 96 wells plate in their respective culture mediums alone or containing growing concentration from 10 to 500 uM of Compounds 9a-b. Cultures were incubated 4 days and the cellular toxicity has been evaluated by XTT assays. Cell viability has been also assessed by counting living and dead cells with trypan blue staining.
XTT assays allows, through cell metabolism measurement, to determine a cytotoxic/cytostatic effects. Compounds 9a-b and 18a were tested for their eventual toxicity by XTT assays as described in the material and method section. […]

GB5 cells [2] = test: TMZ assay: GSC sensitivity to Temozolomide (XTT); assay type: cell-based, human; conditions: three days
Method: FIG. 5: Sensitivity to TMZ was assessed by comparing the percentage of dead cells between TMZ treated GB5 and TMZ treated GB5 in combination with Compound 9a. GB5 cells have been treated with 400 uM TMZ alone or in combination with growing concentrations of Compounds 9a-b and 18b. The results are the meaning of at least two separate experiments.
IV—TMZ assay: TG6 and GB5 were seeded at 2000 cells/well in 96 wells plate in NS34+ or treated with medium containing 400 uM of TMZ alone or mixed with 10, 25 and 50 uM of Compounds 9a-b and 18a-b. Cultures were incubated 4 days and the cell viability has been evaluated by XTT assays and a count of living and dead cells with trypan blue staining.
Temozolomide is the chemotherapy of reference for GBM treatment. In order to assess whether the compounds might sensitize GSC to TMZ, TMZ (400 uM) pretreated GB5 cells were incubated with 10, 25 and 50 uM of Compounds 9a-b and 18b. Three days later the experiment is stop and the cells were subjected to an XTT assays. […] Cell toxicity was confirmed by trypan blue staining.

Question: With `NCCCCNCCCNC(=O)c1csc(-c2csc(CCNC(=O)CCc3cn(CC4OC(OC5C(O)C(N)CC(N)C5OC5OC(CN)C(O)C(O)C5N)C(O)C4OC4OC(CN)C(O)C(O)C4N)nn3)n2)n1` (centres unmarked) [Compound 9a, N-(3-((4-Aminobutyl)amino)propyl)-2′-(2-(3-(1-methyl-1H-1,2,3-triazol-4-yl)propanamido)ethyl)-[2,4′-bithiazole]-4-carboxamide-neomycin] as the compound, how does the NESTIN expression (NESTIN expression in GB5; growing concentrations) read?
Answer: The NESTIN expression was “drop in NESTIN expression”.

Question: What about the IC50 (NESTIN expression in GB5; Homo sapiens, 168 h) of the same compound?
Answer: Its IC50 is 10 µM.

Question: And the GSC mitosis (GB5 cells [1])?
Answer: Its GSC mitosis is “altered”.

Question: What about the IC50 (GB5 cells [1]; Homo sapiens, read-out: mitosis inhibition IC50) of the same compound?
Answer: The IC50 was less than 10 µM.

Question: And the “toxicity (XTT)” value (human kidney (NHEK); 100 uM and above)?
Answer: Its value is “toxic”.

Question: What about the “toxicity (XTT)” value (human kidney (NHEK); between 10 to 50 uM) of the same compound?
Answer: Its value is “not toxic”.

Question: And the “increase of TMZ sensitivity” value (GB5 cells [2]; GB5, TMZ 400 uM plus compound at 10 uM)?
Answer: Its value is 2 fold.

Question: What about the “increase of TMZ sensitivity, maximal effect” value (GB5 cells [2]; GB5, TMZ 400 uM plus compound at 50 uM) of the same compound?
Answer: Its value is 2.9 fold.

From patent US12508275B2, “Neomycin based compounds, and pharmaceutical use thereof” (UNIVERSITÉ COTE D'AZUR, priority 2019, dated 2025)
